Experimental data published in ChEMBL document CHEMBL3124935, “Synthesis and study of cytotoxic activity of 1,2,4-trioxane- and egonol-derived hybrid molecules against Plasmodium falciparum and multidrug-resistant human leukemia cells” (Eur J Med Chem, 2014).

Experiments:
CCRF-CEM [1] = assay: Cytotoxicity against human CCRF-CEM cells by resazurin assay; assay type: functional, cell-based
[2] = Cytotoxicity against human multidrug-resistant CEM/ADR5000 cells expressing p-glycoprotein by resazurin assay; assay type: functional, cell-based
Plasmodium falciparum = assay: Antimalarial activity against Plasmodium falciparum 3D7 assessed as growth inhibition after 3 days by HRP2 based ELISA; assay type: functional, organism-based; settings: 3D7, 72 h
CCRF-CEM [3] = assay: Resistance ratio of IC50 for human multidrug-resistant CEM/ADR5000 cells expressing p-glycoprotein to IC50 for human CCRF-CEM cells; assay type: functional
[4] = Cytotoxicity against human multidrug-resistant CEM/ADR5000 cells expressing p-glycoprotein at 400 uM by resazurin assay; assay type: functional, cell-based

SMILES	IC50 (CCRF-CEM [1]) [nM]	IC50 [2] [µM]	IC50 (Plasmodium falciparum) [nM]	Ratio IC50 (CCRF-CEM [3])	IC50 [4]
COc1cc(CCCO)cc2cc(-c3ccc4c(c3)OCO4)oc12 [EGONOL]	5750	9.78	25400	1.7	
C[C@@H]1CC[C@H]2[C@@H](C)C(CCCO)O[C@@H]3O[C@@]4(C)CC[C@@H]1[C@]32OO4 (some centres undefined)	174000				Not Active
COc1cccc2c1C(=O)c1c(O)c3c(c(O)c1C2=O)C[C@@](O)(C(=O)CO)C[C@@H]3O[C@H]1C[C@H](N)[C@H](O)[C@H](C)O1 [DOXORUBICIN]	9	23.3		2585	
C[C@H]1[C@H](OC(=O)CCC(=O)NCCCCCCCCNC(=O)CCC(=O)O[C@@H]2O[C@@H]3O[C@@]4(C)CC[C@H]5[C@H](C)CC[C@@H]([C@H]2C)[C@@]35OO4)O[C@@H]2O[C@@]3(C)CC[C@H]4[C@H](C)CC[C@@H]1[C@@]24OO3			0.3		
C[C@H]1[C@H](OC(=O)CCC(=O)O)O[C@@H]2O[C@@]3(C)CC[C@H]4[C@H](C)CC[C@@H]1[C@@]24OO3 [ARTESUNATE]		1.2	0.82	0.67	
C[C@H]1[C@H](OC(=O)CCC(=O)NCC(O)CNC(=O)CCC(=O)O[C@@H]2O[C@@H]3O[C@@]4(C)CC[C@H]5[C@H](C)CC[C@@H]([C@H]2C)[C@@]35OO4)O[C@@H]2O[C@@]3(C)CC[C@H]4[C@H](C)CC[C@@H]1[C@@]24OO3 (some centres undefined)			0.32		
COc1cc(CCCOC(=O)CCC(=O)O[C@@H]2O[C@@H]3O[C@@]4(C)CC[C@H]5[C@H](C)CC[C@@H]([C@H]2C)[C@@]35OO4)cc2cc(-c3ccc4c(c3)OCO4)oc12	180	1.12	2.3	6.12	
C[C@@H]1CC[C@H]2[C@@H](C)C(=O)O[C@@H]3O[C@@]4(C)CC[C@@H]1[C@]32OO4 [ARTEMISININ]				0.73	
